From ChEMBL document CHEMBL1201862, “PubChem BioAssay data set” (2004)
Each block holds one molecule with its values, some of them ahead of it. Activity calls are given as the source filed them.

Legend:
SUMO-activating enzyme [1] = target: T1, SUMO-activating enzyme (Homo sapiens, UniProt Q9UBT2); experiment: blockers of UBC9-mediated SUMO conjugation – biochemical, AlphaScreen, SUMOylation inhibitor project, confirmation (AID 2018); format: functional
[2] = target: E3 ubiquitin-protein ligase XIAP (Homo sapiens, UniProt P98170); experiment: Counter Screen using XIAP-Bir3 for Chemical Antagonists of Bir1/2 domains of IAP-family anti-apoptotic proteins. [Related pubchem assays (depositor defined):AID1018, AID1449, AID1514, AID1638, AID1749, AID1750, AID488957, AID488963]
Sequence of E3 ubiquitin-protein ligase XIAP (P98170 whole entry): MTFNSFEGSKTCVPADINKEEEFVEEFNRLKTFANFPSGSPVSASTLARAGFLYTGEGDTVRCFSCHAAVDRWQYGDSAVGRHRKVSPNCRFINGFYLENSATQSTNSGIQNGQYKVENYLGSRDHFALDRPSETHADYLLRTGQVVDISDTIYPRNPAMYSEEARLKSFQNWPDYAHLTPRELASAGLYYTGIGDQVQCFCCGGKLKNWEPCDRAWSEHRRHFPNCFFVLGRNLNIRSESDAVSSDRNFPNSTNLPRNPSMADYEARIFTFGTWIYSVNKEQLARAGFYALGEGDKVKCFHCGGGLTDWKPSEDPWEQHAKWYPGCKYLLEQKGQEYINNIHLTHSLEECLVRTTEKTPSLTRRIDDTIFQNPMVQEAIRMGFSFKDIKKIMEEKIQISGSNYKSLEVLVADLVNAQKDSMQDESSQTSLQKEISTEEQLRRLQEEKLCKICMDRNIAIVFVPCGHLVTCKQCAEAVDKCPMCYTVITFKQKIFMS

SUMO-activating enzyme [3] = target: T1, SUMO-activating enzyme; experiment: blockers of SAE1/SAE2–UBC9 SUMO transfer – biochemical, HTRF, uHTS, primary screen (AID 2006); format: protein-complex assay
Bcl-2-related protein A1 = target: T2, Bcl-2-related protein A1 (Mus musculus, UniProt Q07440); format: functional;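 note: confirmatory dose–response counterscreen on Bfl-1, used to check hits from a UBC13 polyubiquitin inhibitor campaign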
T2 sequence (Q07440 whole entry): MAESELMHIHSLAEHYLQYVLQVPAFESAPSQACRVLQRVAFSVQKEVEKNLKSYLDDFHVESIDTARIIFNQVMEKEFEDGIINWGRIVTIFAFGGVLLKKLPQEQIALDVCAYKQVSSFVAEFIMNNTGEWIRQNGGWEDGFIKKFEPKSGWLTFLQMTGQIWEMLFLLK

[4] = target: T3, Ubiquitin-conjugating enzyme E2 N (Homo sapiens, UniProt P61088); format: functional
T3 sequence (P61088 whole entry): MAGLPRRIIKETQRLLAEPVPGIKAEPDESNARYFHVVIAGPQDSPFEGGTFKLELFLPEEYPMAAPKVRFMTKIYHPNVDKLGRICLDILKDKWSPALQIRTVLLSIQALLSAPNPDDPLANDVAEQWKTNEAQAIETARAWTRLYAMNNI

[5] = target: T3, Ubiquitin-conjugating enzyme E2 N; format: functional; remark: listed apart in the source
[6] = target: T4, Apoptotic protease-activating factor 1 (Homo sapiens, UniProt O14727); format: functional
T4 sequence (O14727 whole entry): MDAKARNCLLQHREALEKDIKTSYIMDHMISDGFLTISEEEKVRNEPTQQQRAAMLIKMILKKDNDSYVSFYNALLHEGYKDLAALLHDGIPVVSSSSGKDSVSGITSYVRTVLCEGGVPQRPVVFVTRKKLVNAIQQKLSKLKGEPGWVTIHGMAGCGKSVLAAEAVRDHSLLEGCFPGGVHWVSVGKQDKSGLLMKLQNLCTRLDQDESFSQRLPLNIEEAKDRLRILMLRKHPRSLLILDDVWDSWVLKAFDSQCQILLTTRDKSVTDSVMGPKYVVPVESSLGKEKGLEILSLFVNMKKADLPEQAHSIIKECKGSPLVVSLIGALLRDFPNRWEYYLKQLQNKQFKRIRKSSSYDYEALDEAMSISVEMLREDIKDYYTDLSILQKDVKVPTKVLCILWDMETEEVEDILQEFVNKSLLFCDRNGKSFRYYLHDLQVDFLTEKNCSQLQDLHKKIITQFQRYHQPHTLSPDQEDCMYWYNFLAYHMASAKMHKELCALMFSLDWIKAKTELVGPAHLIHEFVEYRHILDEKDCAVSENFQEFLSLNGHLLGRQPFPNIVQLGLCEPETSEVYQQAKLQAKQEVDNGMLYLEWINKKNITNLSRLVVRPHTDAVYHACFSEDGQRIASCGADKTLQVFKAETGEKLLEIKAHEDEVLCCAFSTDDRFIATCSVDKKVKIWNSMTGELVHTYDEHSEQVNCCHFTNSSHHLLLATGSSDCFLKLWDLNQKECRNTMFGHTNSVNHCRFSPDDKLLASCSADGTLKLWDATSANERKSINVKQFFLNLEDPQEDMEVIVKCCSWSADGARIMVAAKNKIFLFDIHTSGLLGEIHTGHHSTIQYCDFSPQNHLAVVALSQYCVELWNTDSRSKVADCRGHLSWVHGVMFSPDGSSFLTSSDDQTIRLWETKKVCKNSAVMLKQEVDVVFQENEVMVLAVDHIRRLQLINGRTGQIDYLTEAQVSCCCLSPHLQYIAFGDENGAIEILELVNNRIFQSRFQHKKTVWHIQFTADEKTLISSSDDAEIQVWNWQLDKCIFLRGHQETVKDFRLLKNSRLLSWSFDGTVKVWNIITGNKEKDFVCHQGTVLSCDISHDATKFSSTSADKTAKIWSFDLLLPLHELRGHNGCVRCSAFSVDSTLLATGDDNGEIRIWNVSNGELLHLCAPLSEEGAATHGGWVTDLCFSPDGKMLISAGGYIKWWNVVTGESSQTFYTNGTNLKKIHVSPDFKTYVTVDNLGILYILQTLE

[7] = target: T4, Apoptotic protease-activating factor 1; experiment: SAR analysis of small molecule inhibitors of Apaf-1 in a Fluorescent assay.; format: functional; details: read-out: IC50_Mean
[8] = target: 26S proteasome non-ATPase regulatory subunit 14 (Homo sapiens, UniProt O00487); experiment: inhibition of proteasome subunit RPN11 – biochemical, fluorescence polarization, uHTS hits, confirmation (AID 602368); format: functional
Sequence of 26S proteasome non-ATPase regulatory subunit 14 (O00487 whole entry): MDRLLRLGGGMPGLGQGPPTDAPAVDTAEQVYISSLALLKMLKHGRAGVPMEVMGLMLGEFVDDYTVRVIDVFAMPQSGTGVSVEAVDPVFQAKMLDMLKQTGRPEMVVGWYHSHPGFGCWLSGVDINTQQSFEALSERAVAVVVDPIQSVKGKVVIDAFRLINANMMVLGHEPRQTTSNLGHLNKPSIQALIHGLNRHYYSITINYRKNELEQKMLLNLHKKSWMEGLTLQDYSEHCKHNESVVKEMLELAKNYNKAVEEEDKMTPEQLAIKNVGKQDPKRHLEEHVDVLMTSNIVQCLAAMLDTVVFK

[9] = target: 72 kDa type IV collagenase (Homo sapiens, UniProt P08253); experiment: Dose Response validation of uHTS RPN11 inhibitor hits using a MMP-2 Fluorescence assay.; format: functional
Sequence of 72 kDa type IV collagenase (P08253 whole entry): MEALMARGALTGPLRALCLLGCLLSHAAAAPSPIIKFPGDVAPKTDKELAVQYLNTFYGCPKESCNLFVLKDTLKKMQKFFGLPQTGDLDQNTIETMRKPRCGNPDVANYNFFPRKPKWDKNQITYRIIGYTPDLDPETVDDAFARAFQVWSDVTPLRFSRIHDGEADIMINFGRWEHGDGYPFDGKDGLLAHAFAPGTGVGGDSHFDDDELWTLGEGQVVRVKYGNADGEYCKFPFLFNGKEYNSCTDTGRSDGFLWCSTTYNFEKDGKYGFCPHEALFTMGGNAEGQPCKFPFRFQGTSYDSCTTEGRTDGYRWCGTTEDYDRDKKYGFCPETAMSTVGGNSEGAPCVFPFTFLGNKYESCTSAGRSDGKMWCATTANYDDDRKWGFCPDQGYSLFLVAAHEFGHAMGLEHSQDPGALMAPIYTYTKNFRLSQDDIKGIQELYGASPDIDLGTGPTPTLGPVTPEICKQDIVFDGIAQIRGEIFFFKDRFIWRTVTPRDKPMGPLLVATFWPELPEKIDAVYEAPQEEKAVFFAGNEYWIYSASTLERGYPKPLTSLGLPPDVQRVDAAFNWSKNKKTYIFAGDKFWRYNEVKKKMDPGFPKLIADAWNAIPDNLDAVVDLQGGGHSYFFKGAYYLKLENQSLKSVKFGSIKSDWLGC

Prothrombin = Prothrombin (Bos taurus, UniProt P00735); experiment: thrombin protease inhibitors – biochemical, fluorescence polarization, uHTS hits, dose response (AID 602369); format: functional
[10] = viability loss in HeLa cells – cytotoxicity control for MgcRacGAP inhibitor project, dose response (AID 624300); format: functional
[11] = target: T5, Rac GTPase-activating protein 1 (Homo sapiens, UniProt Q9H0H5); experiment: blockers of MgcRacGAP-driven Rac1 GTP hydrolysis – biochemical, ADP Hunter fluorescence, primary and confirmatory, confirmation (AID 624330); format: functional
T5 sequence (Q9H0H5 whole entry): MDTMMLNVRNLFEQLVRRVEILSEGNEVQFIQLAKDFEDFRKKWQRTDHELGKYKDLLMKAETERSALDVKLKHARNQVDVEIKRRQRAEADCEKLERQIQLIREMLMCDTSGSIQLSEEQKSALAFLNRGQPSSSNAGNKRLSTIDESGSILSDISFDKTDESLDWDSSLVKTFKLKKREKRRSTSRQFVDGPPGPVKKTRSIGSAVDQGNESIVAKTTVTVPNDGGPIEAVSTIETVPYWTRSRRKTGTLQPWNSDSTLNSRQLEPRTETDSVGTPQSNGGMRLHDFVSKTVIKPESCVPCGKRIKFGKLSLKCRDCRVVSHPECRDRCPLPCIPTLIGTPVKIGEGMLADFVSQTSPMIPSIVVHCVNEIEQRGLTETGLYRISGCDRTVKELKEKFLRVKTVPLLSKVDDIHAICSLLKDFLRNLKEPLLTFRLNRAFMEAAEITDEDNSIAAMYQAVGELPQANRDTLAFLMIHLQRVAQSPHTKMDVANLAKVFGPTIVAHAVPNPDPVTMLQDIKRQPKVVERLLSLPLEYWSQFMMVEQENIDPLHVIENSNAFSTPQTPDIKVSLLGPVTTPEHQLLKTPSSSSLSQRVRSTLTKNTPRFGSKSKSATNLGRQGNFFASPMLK

[12] = target: T6, DNA repair protein RAD52 homolog (Homo sapiens, UniProt P43351); format: functional, biochemical
T6 sequence (P43351 whole entry): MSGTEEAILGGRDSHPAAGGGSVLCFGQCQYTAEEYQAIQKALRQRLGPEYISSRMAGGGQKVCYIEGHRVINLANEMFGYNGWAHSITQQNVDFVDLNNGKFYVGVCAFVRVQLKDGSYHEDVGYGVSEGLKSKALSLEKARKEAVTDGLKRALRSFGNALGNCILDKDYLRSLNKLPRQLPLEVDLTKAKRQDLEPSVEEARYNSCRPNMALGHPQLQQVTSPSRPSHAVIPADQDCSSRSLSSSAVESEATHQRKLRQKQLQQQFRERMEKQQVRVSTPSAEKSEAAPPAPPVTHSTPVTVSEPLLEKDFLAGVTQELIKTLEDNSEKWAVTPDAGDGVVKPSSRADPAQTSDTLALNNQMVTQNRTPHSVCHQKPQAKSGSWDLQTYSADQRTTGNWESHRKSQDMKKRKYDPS

[13] = target: Glycogen synthase kinase-3 beta (Homo sapiens, UniProt P49841); experiment: inhibition of human GSK3B activity – biochemical, microfluidics, dry powder samples, set 2, dose response (AID 623989); format: functional
Sequence of Glycogen synthase kinase-3 beta (P49841 whole entry): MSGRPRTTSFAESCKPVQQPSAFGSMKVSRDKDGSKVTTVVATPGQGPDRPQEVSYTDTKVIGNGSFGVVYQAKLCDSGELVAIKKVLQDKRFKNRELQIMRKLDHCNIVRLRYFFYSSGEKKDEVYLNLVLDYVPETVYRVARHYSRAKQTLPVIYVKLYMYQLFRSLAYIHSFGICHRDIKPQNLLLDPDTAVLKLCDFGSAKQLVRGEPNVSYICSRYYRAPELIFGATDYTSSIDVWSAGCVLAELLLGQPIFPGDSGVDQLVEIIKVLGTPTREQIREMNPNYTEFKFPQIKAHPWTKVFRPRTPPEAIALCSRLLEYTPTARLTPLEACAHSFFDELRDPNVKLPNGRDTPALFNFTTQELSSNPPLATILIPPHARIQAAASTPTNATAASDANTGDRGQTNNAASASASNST

[14] = target: Glycogen synthase kinase-3 alpha (Homo sapiens, UniProt P49840); experiment: GSK3A enzyme blockers, homolog specificity check – biochemical, microfluidics, dry powder samples, set 2, selectivity assay for GSK3beta inhibitor project, dose response (AID 623978); format: functional
Sequence of Glycogen synthase kinase-3 alpha (P49840 whole entry): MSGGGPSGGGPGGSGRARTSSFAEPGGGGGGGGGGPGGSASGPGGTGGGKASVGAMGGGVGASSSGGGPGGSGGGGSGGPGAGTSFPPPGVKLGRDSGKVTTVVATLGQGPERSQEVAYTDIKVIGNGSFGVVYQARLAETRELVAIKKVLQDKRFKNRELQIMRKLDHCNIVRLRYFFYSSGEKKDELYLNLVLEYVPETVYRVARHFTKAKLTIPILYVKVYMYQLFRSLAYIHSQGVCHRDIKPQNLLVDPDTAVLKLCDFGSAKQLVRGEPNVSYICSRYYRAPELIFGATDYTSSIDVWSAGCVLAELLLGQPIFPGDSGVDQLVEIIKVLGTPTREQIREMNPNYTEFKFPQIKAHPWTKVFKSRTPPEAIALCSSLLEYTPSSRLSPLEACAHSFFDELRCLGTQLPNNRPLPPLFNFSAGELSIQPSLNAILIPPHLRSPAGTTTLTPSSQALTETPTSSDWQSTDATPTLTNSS

[15] = target: Cell division cycle 7-related protein kinase (Homo sapiens, UniProt O00311); format: functional;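 note: value obtained from a kinome-wide kinase panel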
Sequence of Cell division cycle 7-related protein kinase (O00311 whole entry): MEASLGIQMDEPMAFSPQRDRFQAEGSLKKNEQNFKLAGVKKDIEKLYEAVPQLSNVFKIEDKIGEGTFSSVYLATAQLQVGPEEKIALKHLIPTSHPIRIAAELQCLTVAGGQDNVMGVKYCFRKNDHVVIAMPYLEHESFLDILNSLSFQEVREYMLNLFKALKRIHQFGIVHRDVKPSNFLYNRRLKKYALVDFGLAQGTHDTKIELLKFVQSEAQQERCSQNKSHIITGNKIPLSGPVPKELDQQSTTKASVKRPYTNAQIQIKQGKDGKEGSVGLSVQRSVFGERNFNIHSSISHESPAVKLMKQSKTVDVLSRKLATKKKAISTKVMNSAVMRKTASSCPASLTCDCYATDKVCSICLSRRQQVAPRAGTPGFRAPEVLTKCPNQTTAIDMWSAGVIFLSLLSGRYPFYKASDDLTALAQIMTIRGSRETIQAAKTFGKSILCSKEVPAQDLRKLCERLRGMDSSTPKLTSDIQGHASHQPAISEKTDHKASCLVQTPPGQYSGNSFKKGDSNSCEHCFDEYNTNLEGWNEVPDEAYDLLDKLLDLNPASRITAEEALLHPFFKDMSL

[16] = target: Cyclin-dependent kinase 19 (Homo sapiens, UniProt Q9BWU1); experiment: Navigating the Kinome. Panel member name: CDC2L6; format: functional
Sequence of Cyclin-dependent kinase 19 (Q9BWU1 whole entry): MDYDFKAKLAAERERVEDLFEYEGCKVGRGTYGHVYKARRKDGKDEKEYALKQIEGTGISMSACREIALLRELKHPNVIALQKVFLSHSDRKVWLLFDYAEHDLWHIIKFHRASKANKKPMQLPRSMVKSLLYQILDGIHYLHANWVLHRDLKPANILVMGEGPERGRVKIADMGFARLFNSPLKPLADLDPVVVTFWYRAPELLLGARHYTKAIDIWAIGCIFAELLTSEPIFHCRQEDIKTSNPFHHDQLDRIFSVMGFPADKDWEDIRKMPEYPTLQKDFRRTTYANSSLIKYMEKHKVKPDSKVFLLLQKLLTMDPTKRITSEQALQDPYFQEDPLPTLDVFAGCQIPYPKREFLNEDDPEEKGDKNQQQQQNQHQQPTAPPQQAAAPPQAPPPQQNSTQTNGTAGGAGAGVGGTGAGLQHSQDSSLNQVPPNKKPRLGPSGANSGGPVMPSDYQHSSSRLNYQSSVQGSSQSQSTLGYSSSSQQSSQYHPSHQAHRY

T1 sequence (Q9UBE0 whole entry): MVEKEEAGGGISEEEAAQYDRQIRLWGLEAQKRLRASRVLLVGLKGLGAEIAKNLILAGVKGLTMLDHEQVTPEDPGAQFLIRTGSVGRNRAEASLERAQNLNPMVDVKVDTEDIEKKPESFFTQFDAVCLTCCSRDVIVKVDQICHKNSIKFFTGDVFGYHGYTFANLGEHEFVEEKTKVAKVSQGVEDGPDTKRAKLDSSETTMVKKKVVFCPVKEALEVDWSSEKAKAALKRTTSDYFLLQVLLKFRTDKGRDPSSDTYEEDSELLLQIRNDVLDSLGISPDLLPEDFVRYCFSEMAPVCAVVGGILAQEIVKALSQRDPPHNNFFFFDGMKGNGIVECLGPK
T1 sequence (Q9UBT2 whole entry): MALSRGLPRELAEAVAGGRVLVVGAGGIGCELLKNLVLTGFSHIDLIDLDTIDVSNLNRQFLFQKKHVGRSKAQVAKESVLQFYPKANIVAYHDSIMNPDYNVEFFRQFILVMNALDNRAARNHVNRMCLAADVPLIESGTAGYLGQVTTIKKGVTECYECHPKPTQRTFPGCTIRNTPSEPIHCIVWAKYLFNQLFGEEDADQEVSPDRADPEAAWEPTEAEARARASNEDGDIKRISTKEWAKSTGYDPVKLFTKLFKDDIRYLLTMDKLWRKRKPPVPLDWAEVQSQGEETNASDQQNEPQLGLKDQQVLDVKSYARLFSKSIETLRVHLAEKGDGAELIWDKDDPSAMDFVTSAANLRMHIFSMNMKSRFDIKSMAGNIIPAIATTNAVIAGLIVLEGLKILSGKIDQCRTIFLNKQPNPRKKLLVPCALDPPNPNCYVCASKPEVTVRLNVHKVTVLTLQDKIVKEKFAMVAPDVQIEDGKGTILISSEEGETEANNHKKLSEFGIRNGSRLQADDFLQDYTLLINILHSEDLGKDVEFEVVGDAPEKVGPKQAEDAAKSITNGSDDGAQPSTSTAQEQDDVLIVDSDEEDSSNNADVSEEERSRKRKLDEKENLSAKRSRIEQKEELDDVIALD

IC50 (SUMO-activating enzyme [1]): 7.12 µM (active)
IC50 [2]: > 20 µM (inactive)
IC50 (SUMO-activating enzyme [3]): 11.7 µM (active)
IC50 (Bcl-2-related protein A1): 3.44 µM (active)
IC50 [4]: 3.76 µM (active)
IC50 [5]: 3.02 µM (active)
IC50 [6]: 4.09 µM (active)
IC50 [7]: 3.93 µM (active)
IC50 [8]: 23.2 µM (active)
IC50 [9]: > 100 µM (inactive)
IC50 (Prothrombin): 28.7 µM (active)
IC50 [11]: 32.4 µM (active)
AC50 [12]: 10.9 µM (active)
Structure (SMILES): CCN(CC)CCOC(=O)c1ccc(N/C=C(/C#N)c2nc(-c3ccc(OC)c(OC)c3)cs2)cc1
CC50 [10]: 92.3 µM (active)

AC50 [13]: 509 nM (active)
AC50 [14]: 1.87 µM (active)
Structure (SMILES): COC(=O)c1ccc(CSc2ccc3nnc(-c4ccc(F)cc4)n3n2)o1

Ki [15]: 251 nM (active)
Ki [16]: 31.6 µM (active)
Structure (SMILES): CN(C)CCNC(=O)c1ccc(-c2ccnc(Nc3cccc(F)c3)n2)cc1
